Laboratory results taken from patent US9555115B2, “Pharmaceutical composition for oral administration with improved dissolution and/or absorption” (Taiho Pharmaceutical Co., Ltd., priority 2012, dated 2017).

Experiment: Compatibility test: related substances by HPLC after storage of mixed powders
Type: physicochemical
From the text: 4-((1-methylpyrrol-2-yl)-carbonyl)-N-(4-(4-morpholin-1-yl-carbonylpiperidin-1-yl)-phenyl)-1-piperazinecarboxamide (compound 1) monohydrate and organic acids were respectively weighed in an amount of 0.5 g. Compound 1 monohydrate was mixed with each organic acid in a mortar to produce individual mixed powders. Subsequently, compound 1 monohydrate alone was weighed in an amount of 0.5 g to produce a compound 1 monohydrate powder according to the same method as in the production of the organic acid mixed powders.
Each organic acid mixed powder and each compound 1 monohydrate powder were weighed in amounts of 0.04 g and 0.02 g, respectively, in sealed and open glass bottles. These bottles were allowed to stand at 60° C. and a relative humidity of 60% for two weeks, and then the production of a compound 1 monohydrate related substance was examined by HPLC to evaluate stability. In the evaluation, a high-speed liquid chromatograph (Shimadzu Corporation) was used.
Detector: Ultraviolet spectrophotometer (measurement wavelength: 260 nm)
Column: Phenylated silica gel for liquid chromatography (3.5 μm) (XBridge Phenyl, Japan Waters, Inc.) was placed in a stainless pipe with an inner diameter of 4.6 mm and a length of 10 cm.
Column temperature: Constant temperature of around 40° C.
Mobile phase A: Phosphate buffer solution (pH 7)
Mobile phase B: Acetonitrile
Transfer of mobile phase: The concentration gradient is regulated by changing the mixing ratio of mobile phases A and B as shown in Table 1.

Cn1cccc1C(=O)N1CCN(C(=O)Nc2ccc(N3CCC(C(=O)N4CCOCC4)CC3)cc2)CC1.O [Compound 1 monohydrate, 4-((1-methylpyrrol-2-yl)-carbonyl)-N-(4-(4-morpholin-1-yl-carbonylpiperidin-1-yl)-phenyl)-1-piperazinecarboxamide]
Initial value Related Substances (initial value, before storage): 0.46 mass %
Open Related Substances (open glass bottle, 60° C., relative humidity 60%, two weeks): 0.47 mass %
Sealed Related Substances (sealed glass bottle, 60° C., relative humidity 60%, two weeks): 0.44 mass %
